Results published in ChEMBL document CHEMBL1201862, “PubChem BioAssay data set” (2004).
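Where inhibition never reached the appropriate level, the endpoint shown equals the highest concentration tested. Otherwise, values were interpolated linearly from a five-concentration, 48-hour dose response in 96-well plates. Abbreviation: GI50, concentration required for 50% inhibition of growth.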 The source made the active and inactive calls. No stated cut-off is given here; in the data, active = GI50 up to about 1.1 µM and inactive = higher. Where a SMILES comes first, the peptide text is derived from it. The star is where a group is joined. Cbz = O=C(OCc1ccccc1)*

Assays:
Assay in all cases: NCI-60 cell line screen, 48 h
Malme-3M = system: Malme-3M
MOLT-4 = system: MOLT-4
RPMI-8226 = system: RPMI-8226
SNB-75 = system: SNB-75
HCT-15 = system: HCT-15
OVCAR-5 = system: OVCAR-5
PC-3 = system: PC-3
CAKI-1 = system: CAKI-1
T47D = system: T47D
786-0 = system: 786-0
HCC 2998 = system: HCC 2998
MDA-MB-231 = system: MDA-MB-231
LOX IMVI = system: LOX IMVI
HOP-62 = system: HOP-62
MDA-MB-435 = system: MDA-MB-435
SR = system: SR
UACC-62 = system: UACC-62
BT-549 = system: BT-549
HCT-116 = system: HCT-116
NCI/ADR-RES = system: NCI/ADR-RES
ACHN = system: ACHN
IGROV-1 = system: IGROV-1
SNB-19 = system: SNB-19
SK-OV-3 = system: SK-OV-3
HL-60 = system: HL-60
MDA-N = system: MDA-N
SF-268 = system: SF-268
UACC-257 = system: UACC-257
SN12C = system: SN12C
K562 = system: K562
NCI-H23 = system: NCI-H23
U-251 = system: U-251
Hs-578T = system: Hs-578T
OVCAR-4 = system: OVCAR-4
MCF7 = system: MCF7
OVCAR-8 = system: OVCAR-8
OVCAR-3 = system: OVCAR-3
SK-MEL-5 = system: SK-MEL-5
HT-29 = system: HT-29
COLO 205 = system: COLO 205
KM12 = system: KM12
NCI-H522 = system: NCI-H522
A549 = system: A549
SF-539 = system: SF-539
TK-10 = system: TK-10
DU-145 = system: DU-145
SW-620 = system: SW-620
M14 = system: M14
SF-295 = system: SF-295
SK-MEL-28 = system: SK-MEL-28
HOP-92 = system: HOP-92
UO-31 = system: UO-31
CCRF-CEM = system: CCRF-CEM
NCI-H226 = system: NCI-H226
RXF 393 = system: RXF 393
SK-MEL-2 = system: SK-MEL-2
EKVX = system: EKVX
A498 = system: A498
NCI-H460 = system: NCI-H460

Measured: GI50

COC(=O)C1=Nc2c(C)nn(-c3ccccc3)c2N=C(c2ccccc2)C1
active: OVCAR-5 0.001 µM
> 10 µM: HCT-15
inactive: Malme-3M > 10 µM | MOLT-4 > 10 µM | RPMI-8226 > 10 µM | SNB-75 > 10 µM | PC-3 > 10 µM | CAKI-1 > 10 µM | T47D > 10 µM | 786-0 > 10 µM | HCC 2998 > 10 µM | MDA-MB-231 > 10 µM | LOX IMVI > 10 µM | HOP-62 > 10 µM | MDA-MB-435 > 10 µM | SR > 10 µM | UACC-62 > 10 µM | BT-549 > 10 µM | HCT-116 > 10 µM | NCI/ADR-RES > 10 µM | ACHN > 10 µM | IGROV-1 > 10 µM | SNB-19 > 10 µM | SK-OV-3 > 10 µM | HL-60 > 10 µM | MDA-N > 10 µM | SF-268 > 10 µM | UACC-257 > 10 µM | SN12C > 10 µM | K562 > 10 µM | NCI-H23 > 10 µM | U-251 > 10 µM | Hs-578T > 10 µM | OVCAR-4 > 10 µM | MCF7 > 10 µM | OVCAR-8 > 10 µM | OVCAR-3 > 10 µM | SK-MEL-5 > 10 µM | HT-29 > 10 µM | COLO 205 > 10 µM | KM12 > 10 µM | NCI-H522 > 10 µM | A549 > 10 µM | SF-539 > 10 µM | TK-10 > 10 µM | DU-145 > 10 µM | SW-620 > 10 µM | M14 > 10 µM | SF-295 > 10 µM | SK-MEL-28 > 10 µM | HOP-92 > 10 µM

CCCCNN
> 100 µM: HCT-15
inactive: Malme-3M > 100 µM | UO-31 > 100 µM | MOLT-4 > 100 µM | RPMI-8226 > 100 µM | SNB-75 > 100 µM | CCRF-CEM 43 µM | OVCAR-5 > 100 µM | PC-3 > 100 µM | CAKI-1 > 100 µM | T47D > 100 µM | 786-0 > 100 µM | NCI-H226 > 100 µM | MDA-MB-231 > 100 µM | LOX IMVI > 100 µM | HOP-62 > 100 µM | MDA-MB-435 > 100 µM | SR > 100 µM | UACC-62 > 100 µM | BT-549 > 100 µM | RXF 393 > 100 µM | HCT-116 > 100 µM | NCI/ADR-RES > 100 µM | ACHN > 100 µM | IGROV-1 > 100 µM | SNB-19 > 100 µM | SK-OV-3 > 100 µM | HL-60 > 100 µM | MDA-N > 100 µM | UACC-257 > 100 µM | SN12C > 100 µM | SK-MEL-2 > 100 µM | K562 > 100 µM | NCI-H23 > 100 µM | U-251 > 100 µM | Hs-578T > 100 µM | OVCAR-4 > 100 µM | MCF7 > 100 µM | OVCAR-8 > 100 µM | OVCAR-3 > 100 µM | SK-MEL-5 95.7 µM | EKVX > 100 µM | HT-29 > 100 µM | COLO 205 > 100 µM | KM12 > 100 µM | NCI-H522 65.3 µM | A549 > 100 µM | TK-10 > 100 µM | DU-145 > 100 µM | SW-620 > 100 µM | A498 > 100 µM | M14 > 100 µM | SF-295 > 100 µM | SK-MEL-28 > 100 µM

CCOC(=O)/C(=N\Nc1ccc(-n2c(C)nc3ccccc3c2=O)cc1)C(C)=O
inactive: UO-31 29.1 µM | MOLT-4 13.5 µM | RPMI-8226 11.6 µM | SNB-75 17.2 µM | CCRF-CEM 40.3 µM | OVCAR-5 > 100 µM | PC-3 34.8 µM | CAKI-1 > 100 µM | T47D 21 µM | 786-0 > 100 µM | NCI-H226 18.7 µM | MDA-MB-231 > 100 µM | LOX IMVI 32.1 µM | HOP-62 40.2 µM | MDA-MB-435 17.5 µM | SR 33.3 µM | UACC-62 29.8 µM | BT-549 33.3 µM | HCT-116 36 µM | NCI/ADR-RES 18.1 µM | ACHN 32.4 µM | IGROV-1 22.9 µM | SNB-19 > 100 µM | SK-OV-3 74 µM | HL-60 14 µM | MDA-N 29 µM | SF-268 25.8 µM | UACC-257 26.4 µM | SN12C > 100 µM | SK-MEL-2 54.5 µM | K562 32.6 µM | NCI-H23 50.5 µM | U-251 > 100 µM | Hs-578T 20.7 µM | MCF7 37.7 µM | OVCAR-8 19.6 µM | OVCAR-3 21.7 µM | SK-MEL-5 2.25 µM | EKVX 25.6 µM | HT-29 53.6 µM | COLO 205 39.9 µM | KM12 17.7 µM | NCI-H460 92.9 µM | A549 49.9 µM | SF-539 51.8 µM | TK-10 20.9 µM | DU-145 80.2 µM | SW-620 61.5 µM | A498 99.3 µM | M14 24.2 µM | SF-295 33 µM | SK-MEL-28 20.3 µM | HOP-92 11.9 µM
37.7 µM: HCT-15

CN(C)C1C(CO)OC(n2cnc3c(N)ncnc32)C1O (centres undefined)
inactive: UO-31 > 100 µM | MOLT-4 > 100 µM | RPMI-8226 > 100 µM | SNB-75 > 100 µM | CCRF-CEM > 100 µM | OVCAR-5 > 100 µM | PC-3 > 100 µM | CAKI-1 > 100 µM | T47D > 100 µM | 786-0 > 100 µM | NCI-H226 > 100 µM | MDA-MB-231 > 100 µM | LOX IMVI > 100 µM | HOP-62 > 100 µM | MDA-MB-435 > 100 µM | SR > 100 µM | UACC-62 > 100 µM | BT-549 > 100 µM | HCT-116 > 100 µM | NCI/ADR-RES > 100 µM | ACHN > 100 µM | IGROV-1 > 100 µM | SNB-19 > 100 µM | SK-OV-3 > 100 µM | HL-60 > 100 µM | MDA-N > 100 µM | SF-268 > 100 µM | UACC-257 > 100 µM | SN12C > 100 µM | SK-MEL-2 > 100 µM | K562 > 100 µM | NCI-H23 > 100 µM | U-251 > 100 µM | Hs-578T > 100 µM | OVCAR-4 > 100 µM | MCF7 > 100 µM | OVCAR-8 > 100 µM | OVCAR-3 > 100 µM | SK-MEL-5 > 100 µM | EKVX > 100 µM | HT-29 > 100 µM | COLO 205 > 100 µM | KM12 > 100 µM | NCI-H522 > 100 µM | NCI-H460 > 100 µM | A549 > 100 µM | SF-539 > 100 µM | TK-10 > 100 µM | DU-145 > 100 µM | SW-620 > 100 µM | A498 > 100 µM | M14 > 100 µM | SF-295 > 100 µM | SK-MEL-28 > 100 µM
> 100 µM: HCT-15

COC(=O)C(CC(C)C)NC(=O)C(CCCNC(=N)N)NC(=O)OCc1ccccc1 (stereo not drawn) (Cbz-Arg-Leu-OMe; configuration not given here)
> 100 µM: HCT-15
inactive: Malme-3M > 100 µM | UO-31 > 100 µM | MOLT-4 > 100 µM | RPMI-8226 > 100 µM | SNB-75 72.6 µM | CCRF-CEM > 100 µM | OVCAR-5 > 100 µM | PC-3 > 100 µM | CAKI-1 > 100 µM | T47D > 100 µM | 786-0 > 100 µM | NCI-H226 > 100 µM | HCC 2998 > 100 µM | MDA-MB-231 > 100 µM | LOX IMVI > 100 µM | HOP-62 > 100 µM | MDA-MB-435 > 100 µM | SR > 100 µM | UACC-62 > 100 µM | BT-549 > 100 µM | RXF 393 > 100 µM | HCT-116 > 100 µM | NCI/ADR-RES > 100 µM | ACHN > 100 µM | IGROV-1 > 100 µM | SNB-19 > 100 µM | SK-OV-3 > 100 µM | HL-60 > 100 µM | MDA-N > 100 µM | SF-268 > 100 µM | SN12C > 100 µM | K562 > 100 µM | NCI-H23 > 100 µM | U-251 > 100 µM | Hs-578T > 100 µM | OVCAR-4 > 100 µM | MCF7 > 100 µM | OVCAR-8 > 100 µM | OVCAR-3 > 100 µM | SK-MEL-5 > 100 µM | EKVX > 100 µM | HT-29 > 100 µM | COLO 205 > 100 µM | KM12 > 100 µM | NCI-H522 78.5 µM | NCI-H460 > 100 µM | A549 > 100 µM | TK-10 > 100 µM | DU-145 > 100 µM | SW-620 > 100 µM | M14 > 100 µM | SF-295 > 100 µM | SK-MEL-28 > 100 µM | HOP-92 > 100 µM
